{"source": "patent US9504722B2", "about": "“Anti-obese compositions containing holoptelea integrifolia extracts” (Laila Nutraceuticals, priority 2007, dated 2016)", "key": {"[1]": {"test_system": "Sprague-Dawley rats on high fat diet", "assay": "Protective effect against diet induced obesity in rats", "assay_type": "in vivo, rat", "conditions": "7 mg/kg body weight, 8 weeks, vs control group", "procedure": "Protective Effect of Holoptelea integrifolia Against Diet Induced Obesity in Rats.\nSelected healthy Sprague-Dawley rats were randomly assigned to control or various treatment groups (n=6). All the animals allocated for protective phase of the study were on dietary intervention by feeding high fat diet ad libitum and the animals allocated to treatment groups were simultaneously given oral administration of 100 mg or 250 mg/kg Holoptelea integrifolia methanol extract in 10 mL of 0.5% CMC, using gastric tube for the entire 8 week study duration. The test animals of the control group were simultaneously given 10 ml/kg of 0.5% CMC. Sibutramine (7 mg/kg body weight) was used as a positive control. Food and water consumption were recorded daily, body weights were recorded weekly and fasting blood samples were collected before initiation, after 4th week and 8th week (termination) of the study. The weight gain is plotted against the study duration in weeks (FIG. I). […] Upon administration of Holoptelea integrifolia alcohol extract for a period of 60 days, the level of triglyceride in the obese rats was reduced by 50% compared to the control. The levels of serum cholesterol and LDL were reduced by 40% and 45% respectively, whereas the level of HDL was increased by 25%."}, "[2]": {"test_system": "diet induced obese Sprague-Dawley rats", "assay": "Anti-obese activity in diet induced obese rats (therapeutic)", "assay_type": "in vivo, rat", "conditions": "7 mg/kg body weight, 5 weeks after 8 weeks high fat diet, vs control group", "procedure": "Anti-Obese Activity of Holoptelea integrifolia in Diet Induced Obese Rats.\nSelected healthy Sprague-Dawley rats were randomly assigned to control or various treatment groups (n=6). All the animals allocated for the study were made obese through dietary intervention by feeding high fat diet ad libitum for 8 weeks. After 8 weeks, the treatment group of animals was given oral administration of 250 mg/kg or 500 mg/kg of Holoptelea integrifolia alcohol extract in 10 mL of 0.5% CMC, using gastric tube for 5 week study duration. Sibutramine (7 mg/kg body weight) is used as a positive control. The control group of animals were given 10 ml/kg of 0.5% CMC. Food and water consumption were recorded daily, body weights were recorded weekly and fasting blood samples were collected before initiation after 5th week of the study. The weight gain for different groups compared at weekly intervals (FIG. II)."}}, "data": [{"smiles": "CC(C)CC(N(C)C)C1(c2ccc(Cl)cc2)CCC1", "note": "(centres unmarked) [Sibutramine]", "values": [{"measurement": "reduction in weight gain", "setting": "[1]", "result": 30.5, "unit": "%"}, {"measurement": "reduction in weight gain", "setting": "[2]", "result": 123.1, "unit": "%"}]}]}
